Values joined by “and” are separate entries in the source; they are usually repeats but may differ in a detail not shown here. Identical values can stand only once. Toxic doses and inconclusive results are not listed. The calls were made as follows: active = survival T/C of 150% or more; inactive = T/C below 125% in these data.
Test system: CD2F1 mice, L1210 leukemia ip, survival T/C
Assay: NCI In Vivo Anticancer Drug Screen. Data for tumor model L1210 Leukemia (intraperitoneal) in CD2F1 (CDF1) mice
Details: higher = longer survival
Outline: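 Tumor-bearing mice (transplanted tumor) were split into treated and vehicle control groups, and the measured endpoint of each treated group was divided by that of its vehicle controls.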

[1] = endpoint: mean survival time, dose: 100.0 mg/kg/injection, schedule: Q01DX009 (ip), vehicle: saline with Tween-80
[2] = endpoint: mean survival time, dose: 200.0 mg/kg/injection, schedule: Q01DX009 (ip), vehicle: saline with Tween-80
[3] = endpoint: mean survival time, dose: 400.0 mg/kg/injection, schedule: Q01DX009 (ip), vehicle: saline with Tween-80
[4] = endpoint: mean survival time, dose: 50.0 mg/kg/injection, schedule: Q01DX009 (ip), vehicle: saline with Tween-80
[5] = endpoint: mean survival time, dose: 100.0 mg/kg/injection, schedule: Q01DX001 (ip), vehicle: saline with Tween-80
[6] = endpoint: mean survival time, dose: 200.0 mg/kg/injection, schedule: Q01DX001 (ip), vehicle: saline with Tween-80
[7] = endpoint: mean survival time, dose: 400.0 mg/kg/injection, schedule: Q01DX001 (ip), vehicle: saline with Tween-80
[8] = endpoint: mean survival time, dose: 100.0 mg/kg/injection, schedule: Q01DX001 (ip), vehicle: saline
[9] = endpoint: mean survival time, dose: 50.0 mg/kg/injection, schedule: Q04DX002 (ip), vehicle: saline with Tween-80
[10] = endpoint: mean survival time, dose: 100.0 mg/kg/injection, schedule: Q04DX002 (ip), vehicle: saline with Tween-80
[11] = endpoint: mean survival time, dose: 200.0 mg/kg/injection, schedule: Q04DX002 (ip), vehicle: saline with Tween-80
[12] = endpoint: mean survival time, dose: 25.0 mg/kg/injection, schedule: Q04DX002 (ip), vehicle: saline with Tween-80
[13] = endpoint: mean survival time, dose: 25.0 mg/kg/injection, schedule: Q04DX003 (ip), vehicle: saline with Tween-80
[14] = endpoint: mean survival time, dose: 50.0 mg/kg/injection, schedule: Q04DX003 (ip), vehicle: saline with Tween-80
[15] = endpoint: mean survival time, dose: 400.0 mg/kg/injection, schedule: Q04DX002 (ip), vehicle: saline with Tween-80
[16] = endpoint: mean survival time, dose: 100.0 mg/kg/injection, schedule: Q04DX003 (ip), vehicle: saline with Tween-80
[17] = endpoint: mean survival time, dose: 200.0 mg/kg/injection, schedule: Q04DX003 (ip), vehicle: saline with Tween-80

Measured: T/C

O=C(C=[As](c1ccccc1)(c1ccccc1)c1ccccc1)c1ccccc1
inactive: endpoint: mean survival time, dose: 75.0 mg/kg/injection, schedule: Q01DX001 (ip), vehicle: other 91 % of control | endpoint: mean survival time, dose: 150.0 mg/kg/injection, schedule: Q01DX001 (ip), vehicle: other 100 % of control | endpoint: mean survival time, dose: 300.0 mg/kg/injection, schedule: Q01DX001 (ip), vehicle: other 91 % of control

CN(C(=O)c1cccnc1)c1ccccc1
inactive: [1] 98 % of control | [2] 101 % of control | [3] 103 % of control

CN(C)C/C(=N\OC(=O)c1ccccc1)c1ccc(Cl)cc1
inactive: [4] 107 % of control | [5] 96 % of control | [1] 96 % of control | [6] 104 % of control | [2] 96 % of control | [7] 93 % of control

Oc1cc(O)c(Cl)cc1Cl
inactive: endpoint: mean survival time, dose: 25.0 mg/kg/injection, schedule: Q01DX001 (ip), vehicle: saline 103 % of control | endpoint: mean survival time, dose: 50.0 mg/kg/injection, schedule: Q01DX001 (ip), vehicle: saline 95 % of control | [8] 95 % of control and 104 % of control

CC(=O)OC1CCCCCCCCCCC12OCCO2 (configuration not stated)
inactive: endpoint: mean survival time, dose: 100.0 mg/kg/injection, schedule: Q04DX002 (ip), vehicle: other 104 % of control | endpoint: mean survival time, dose: 400.0 mg/kg/injection, schedule: Q04DX002 (ip), vehicle: other 115 % of control

O=c1c2ccccc2nc2c3ccccc3nnn12
inactive: [9] 98 % of control | [10] 120 % of control | [11] 91 % of control

CC1(C)CCSC(/C=C/c2ccccc2)=N1
inactive: endpoint: mean survival time, dose: 100.0 mg/kg/injection, schedule: Q01DX009 (ip), vehicle: other 101 % of control | endpoint: mean survival time, dose: 200.0 mg/kg/injection, schedule: Q01DX009 (ip), vehicle: other 117 % of control | endpoint: mean survival time, dose: 400.0 mg/kg/injection, schedule: Q01DX009 (ip), vehicle: other 109 % of control

COc1ccc(OC)c(C=C(C(C)=O)C(C)=O)c1
inactive: endpoint: mean survival time, dose: 12.5 mg/kg/injection, schedule: Q01DX009 (ip), vehicle: water 95 % of control | endpoint: mean survival time, dose: 25.0 mg/kg/injection, schedule: Q01DX009 (ip), vehicle: water 102 % of control | endpoint: mean survival time, dose: 50.0 mg/kg/injection, schedule: Q01DX009 (ip), vehicle: water 100 % of control | endpoint: mean survival time, dose: 100.0 mg/kg/injection, schedule: Q01DX009 (ip), vehicle: water 95 % of control | endpoint: mean survival time, dose: 200.0 mg/kg/injection, schedule: Q01DX009 (ip), vehicle: water 88 % of control

CC(=O)CC(=O)Nc1cccc(Br)c1
inactive: [1] 98 % of control | [2] 101 % of control | [3] 101 % of control

CCCCCCCCCCC(Sc1n[nH]c(=O)[nH]c1=O)C(=O)OCC (configuration not stated)
inactive: endpoint: mean survival time, dose: 12.5 mg/kg/injection, schedule: Q01DX005 (ip), vehicle: distilled water + Tween-80 97 % of control | endpoint: mean survival time, dose: 25.0 mg/kg/injection, schedule: Q01DX005 (ip), vehicle: distilled water + Tween-80 97 % of control | endpoint: mean survival time, dose: 50.0 mg/kg/injection, schedule: Q01DX005 (ip), vehicle: distilled water + Tween-80 95 % of control | endpoint: mean survival time, dose: 100.0 mg/kg/injection, schedule: Q01DX005 (ip), vehicle: distilled water + Tween-80 95 % of control | endpoint: mean survival time, dose: 200.0 mg/kg/injection, schedule: Q01DX005 (ip), vehicle: distilled water + Tween-80 97 % of control

CC(=O)Nc1ccccc1C(=O)C(=O)Nc1ccccc1C(=O)NN
inactive: [4] 95 % of control | [1] 91 % of control | [2] 87 % of control

c1ccc2c(c1)cc1cnc3cccc4ccc2c1c43
inactive: endpoint: mean survival time, dose: 12.5 mg/kg/injection, schedule: Q04DX002 (ip), vehicle: saline with Tween-80 96 % of control | [12] 101 % of control | [9] 90 % of control

COC1OC2COC(c3ccccc3)OC2C(O)C1N (configuration not stated)
inactive: endpoint: mean survival time, dose: 25.0 mg/kg/injection, schedule: Q01DX009 (ip), vehicle: saline with Tween-80 96 % of control | [4] 100 % of control | [1] 103 % of control

c1ccc(CCN2COc3c(ccc4cccnc34)C2)cc1
inactive: endpoint: mean survival time, dose: 12.5 mg/kg/injection, schedule: Q04DX003 (ip), vehicle: saline with Tween-80 102 % of control | [13] 91 % of control | [14] 98 % of control

Cc1ccc2nc(-c3ccc(Cl)cc3Cl)oc(=O)c2c1
inactive: [10] 100 % of control | [11] 114 % of control | [15] 107 % of control

O=C(O)CC(O)C(=O)O.[Fe] (configuration not stated)
inactive: [8] 93 % of control

COc1ccc(NC(=O)Nc2ccc(OC)cc2Cl)cc1
inactive: [10] 90 % of control | [11] 86 % of control | [15] 90 % of control

Nc1n[nH]c(=S)s1
inactive: [10] 107 % of control | [11] 96 % of control

CC(=O)OCC1OC(n2cnc(C(=O)O)c2N)C(OC(C)=O)C1OC(C)=O (configuration not stated)
inactive: endpoint: median survival time, dose: 8.75 mg/kg/injection, schedule: Q01DX005 (ip), vehicle: saline 98 % of control | endpoint: median survival time, dose: 17.5 mg/kg/injection, schedule: Q01DX005 (ip), vehicle: saline 100 % of control | endpoint: median survival time, dose: 35.0 mg/kg/injection, schedule: Q01DX005 (ip), vehicle: saline 96 % of control | endpoint: median survival time, dose: 70.0 mg/kg/injection, schedule: Q01DX005 (ip), vehicle: saline 96 % of control | endpoint: median survival time, dose: 140.0 mg/kg/injection, schedule: Q01DX005 (ip), vehicle: saline 98 % of control

C=CC(C)(C)S(=O)[O-].[C-]#[O+].[C-]#[O+].[C-]#[O+].[Mn].[c-]1[c-][c-][cH-][c-]1
inactive: [12] 93 % of control | [9] 86 % of control | [10] 93 % of control

CCOC(=O)N/N=C/c1cc(Cl)ccc1O
inactive: [14] 98 % of control | [16] 93 % of control | [17] 91 % of control

COc1cccc(C=Nc2ccc(C)cc2)c1O.COc1cccc(C=Nc2ccc(C)cc2)c1O.[Co]
inactive: [13] 91 % of control | [14] 88 % of control | endpoint: mean survival time, dose: 50.0 mg/kg/injection, schedule: Q04DX003 (ip), vehicle: saline 102 % of control | [16] 94 % of control | endpoint: mean survival time, dose: 100.0 mg/kg/injection, schedule: Q04DX003 (ip), vehicle: saline 98 % of control | [17] 94 % of control | endpoint: mean survival time, dose: 200.0 mg/kg/injection, schedule: Q04DX003 (ip), vehicle: saline 96 % of control | endpoint: mean survival time, dose: 400.0 mg/kg/injection, schedule: Q04DX003 (ip), vehicle: saline with Tween-80 99 % of control | endpoint: mean survival time, dose: 400.0 mg/kg/injection, schedule: Q04DX003 (ip), vehicle: saline 98 % of control

CCC1(C)C(=O)CCC2C1CCC1(C)C(C(C)CCCC(C)C)CCC21 (configuration not stated)
inactive: endpoint: mean survival time, dose: 100.0 mg/kg/injection, schedule: Q01DX001 (sc), vehicle: steriod suspending solution 101 % of control | endpoint: mean survival time, dose: 200.0 mg/kg/injection, schedule: Q01DX001 (sc), vehicle: steriod suspending solution 98 % of control | endpoint: mean survival time, dose: 400.0 mg/kg/injection, schedule: Q01DX001 (sc), vehicle: steriod suspending solution 118 % of control

NC(N)=NC(N)=Nc1ccc(Cl)cc1
inactive: [1] 104 % of control | [2] 106 % of control

N=c1c2ccccc2nnn1Cc1ccccc1
inactive: [5] 98 % of control | [6] 96 % of control | [7] 93 % of control

COc1ccc(C(O)(c2ccccc2)C(OC(=O)CCl)c2ccccc2)cc1 (configuration not stated)
inactive: [6] 91 % of control | [7] 89 % of control

O=C(C[n+]1cc2ccccc2cc1/C=N/O)c1ccccc1
inactive: [4] 98 % of control | [1] 93 % of control | [16] 95 % of control | [2] 96 % of control | [17] 95 % of control

Source: PubChem BioAssay AID256 (DTP/NCI, 2004)
